From patent US20220356174A1, “PYRIDIN-2-ONE COMPOUNDS USEFUL AS SMARCA2 ANTAGONISTS” (Epizyme, Inc., priority 2018, published 2022)
Like-named read-outs stand apart in the source and are kept apart here. One block for each molecule: values may come before it.

Key:
[1] = target: T1, FL-SMARCA2 (full-length human SMARCA2 isoform 1) (Homo sapiens, UniProt P51531); assay: SMARCA2 ATPase activity assay (ADP-Glo, chicken mononucleosome substrate); format: biochemical; conditions: ATP 250 uM
T1 construct: FLAG tag (YKDDDDK) (C); made in house; host or cells: Sf21 insect cells (baculovirus, pFastBacI)
T1 sequence (P51531 with tags, fused parts or gaps): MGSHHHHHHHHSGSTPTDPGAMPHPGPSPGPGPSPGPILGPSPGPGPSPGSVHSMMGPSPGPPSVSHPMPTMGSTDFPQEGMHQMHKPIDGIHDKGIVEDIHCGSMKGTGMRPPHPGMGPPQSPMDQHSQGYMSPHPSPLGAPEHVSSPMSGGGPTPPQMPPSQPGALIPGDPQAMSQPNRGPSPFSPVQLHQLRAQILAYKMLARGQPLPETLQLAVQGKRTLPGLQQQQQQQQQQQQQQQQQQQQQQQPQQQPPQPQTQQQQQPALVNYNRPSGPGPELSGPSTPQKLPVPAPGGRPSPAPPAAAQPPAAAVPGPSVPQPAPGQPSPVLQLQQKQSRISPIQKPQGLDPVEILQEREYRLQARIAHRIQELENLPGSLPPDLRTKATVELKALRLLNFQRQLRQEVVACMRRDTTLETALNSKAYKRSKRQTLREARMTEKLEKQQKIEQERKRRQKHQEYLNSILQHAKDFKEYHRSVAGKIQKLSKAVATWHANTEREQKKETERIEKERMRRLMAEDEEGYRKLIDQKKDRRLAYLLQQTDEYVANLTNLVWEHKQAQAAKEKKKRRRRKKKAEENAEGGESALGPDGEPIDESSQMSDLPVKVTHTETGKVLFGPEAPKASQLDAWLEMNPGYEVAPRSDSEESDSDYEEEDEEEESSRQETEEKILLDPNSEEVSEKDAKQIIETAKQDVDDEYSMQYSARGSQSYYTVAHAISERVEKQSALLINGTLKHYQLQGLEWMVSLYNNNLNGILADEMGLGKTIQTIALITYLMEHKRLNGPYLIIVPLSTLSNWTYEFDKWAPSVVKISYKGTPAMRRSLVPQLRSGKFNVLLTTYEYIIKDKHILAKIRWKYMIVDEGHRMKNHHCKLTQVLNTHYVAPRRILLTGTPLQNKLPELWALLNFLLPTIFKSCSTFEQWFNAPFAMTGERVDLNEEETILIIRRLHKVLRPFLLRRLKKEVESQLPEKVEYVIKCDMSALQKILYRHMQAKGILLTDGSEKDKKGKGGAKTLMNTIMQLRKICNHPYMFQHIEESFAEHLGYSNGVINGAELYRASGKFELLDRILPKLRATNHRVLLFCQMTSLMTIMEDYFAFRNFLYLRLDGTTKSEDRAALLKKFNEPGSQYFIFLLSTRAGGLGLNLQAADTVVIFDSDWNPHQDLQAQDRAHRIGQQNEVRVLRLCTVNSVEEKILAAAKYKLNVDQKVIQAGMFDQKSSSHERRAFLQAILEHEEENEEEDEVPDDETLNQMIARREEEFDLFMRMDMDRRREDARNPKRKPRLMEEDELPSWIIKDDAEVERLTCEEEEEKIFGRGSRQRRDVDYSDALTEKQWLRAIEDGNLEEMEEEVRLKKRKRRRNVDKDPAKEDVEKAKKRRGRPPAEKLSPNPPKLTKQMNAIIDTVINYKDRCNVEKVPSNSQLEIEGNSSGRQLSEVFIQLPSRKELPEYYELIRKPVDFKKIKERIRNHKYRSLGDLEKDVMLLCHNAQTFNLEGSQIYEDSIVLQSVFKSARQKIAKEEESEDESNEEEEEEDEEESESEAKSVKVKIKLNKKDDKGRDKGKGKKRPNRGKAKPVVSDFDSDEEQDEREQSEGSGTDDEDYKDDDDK

FL-SMARCA4 = FL-SMARCA4 (Homo sapiens, UniProt P51532); assay: SMARCA4 ATPase activity assay (ADP-Glo, chicken mononucleosome substrate)
Sequence of FL-SMARCA4 (P51532 whole entry): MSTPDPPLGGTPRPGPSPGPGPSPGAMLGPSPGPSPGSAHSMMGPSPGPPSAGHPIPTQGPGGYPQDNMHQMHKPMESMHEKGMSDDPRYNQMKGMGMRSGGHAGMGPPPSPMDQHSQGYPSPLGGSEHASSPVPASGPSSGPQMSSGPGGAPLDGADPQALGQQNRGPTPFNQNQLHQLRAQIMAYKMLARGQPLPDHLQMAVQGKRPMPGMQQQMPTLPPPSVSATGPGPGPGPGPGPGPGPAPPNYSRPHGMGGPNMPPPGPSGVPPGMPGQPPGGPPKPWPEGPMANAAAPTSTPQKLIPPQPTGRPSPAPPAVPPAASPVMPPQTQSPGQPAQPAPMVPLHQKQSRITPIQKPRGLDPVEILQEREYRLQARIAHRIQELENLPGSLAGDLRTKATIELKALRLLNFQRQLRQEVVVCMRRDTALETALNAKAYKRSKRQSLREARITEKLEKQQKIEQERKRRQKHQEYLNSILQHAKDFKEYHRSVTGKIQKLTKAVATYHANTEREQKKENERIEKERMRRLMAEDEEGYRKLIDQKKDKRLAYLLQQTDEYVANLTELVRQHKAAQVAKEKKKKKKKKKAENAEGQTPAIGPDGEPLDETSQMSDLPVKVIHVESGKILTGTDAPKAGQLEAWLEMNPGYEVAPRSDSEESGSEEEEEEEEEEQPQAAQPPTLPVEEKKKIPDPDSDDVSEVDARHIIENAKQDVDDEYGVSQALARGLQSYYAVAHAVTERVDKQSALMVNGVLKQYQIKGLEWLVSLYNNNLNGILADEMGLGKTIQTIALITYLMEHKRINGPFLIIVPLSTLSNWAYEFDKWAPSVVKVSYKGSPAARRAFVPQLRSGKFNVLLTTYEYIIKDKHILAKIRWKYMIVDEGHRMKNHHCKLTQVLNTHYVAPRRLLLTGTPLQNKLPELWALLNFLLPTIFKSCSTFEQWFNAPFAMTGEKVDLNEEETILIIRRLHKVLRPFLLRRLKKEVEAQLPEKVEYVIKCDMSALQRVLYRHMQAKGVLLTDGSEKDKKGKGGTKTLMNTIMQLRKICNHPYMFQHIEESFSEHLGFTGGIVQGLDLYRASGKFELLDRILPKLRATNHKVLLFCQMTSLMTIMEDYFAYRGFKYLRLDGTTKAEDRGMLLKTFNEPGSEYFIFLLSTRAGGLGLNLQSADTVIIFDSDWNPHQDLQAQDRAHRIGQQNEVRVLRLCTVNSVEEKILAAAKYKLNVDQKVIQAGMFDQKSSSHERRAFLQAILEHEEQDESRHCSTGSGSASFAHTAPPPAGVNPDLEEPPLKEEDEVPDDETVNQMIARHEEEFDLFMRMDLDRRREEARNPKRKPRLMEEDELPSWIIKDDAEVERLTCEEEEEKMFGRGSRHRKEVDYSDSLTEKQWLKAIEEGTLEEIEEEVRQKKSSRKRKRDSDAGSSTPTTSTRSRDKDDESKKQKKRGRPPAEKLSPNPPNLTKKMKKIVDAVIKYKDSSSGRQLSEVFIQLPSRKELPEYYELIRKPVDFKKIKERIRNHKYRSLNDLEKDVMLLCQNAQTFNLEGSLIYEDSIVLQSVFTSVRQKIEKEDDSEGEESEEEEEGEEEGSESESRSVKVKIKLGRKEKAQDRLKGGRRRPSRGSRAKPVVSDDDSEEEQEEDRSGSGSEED

[2] = Table 3a.1, SMARCA2 5 nM, mononucleosome 10 nM
[3] = FL-SMARCA4 IC50, Table 3a.2, SMARCA4 5 nM, ATP 250 uM, mononucleosome 10 nM
[4] = Table 3.1, ATPase assay, enzyme 5 nM, chicken mononucleosome 10 nM, 30 min preincubation
[5] = FL-SMARCA4 IC50, Table 3.2, ATPase assay, enzyme 5 nM, ATP 250 uM, chicken mononucleosome 10 nM, 30 min preincubation
[6] = Table 3c.1, ATPase assay, enzyme 5 nM, chicken mononucleosome 10 nM, 30 min preincubation
[7] = FL-SMARCA4 IC>50, Table 3c.2, ATPase assay, enzyme 5 nM, ATP 250 uM, chicken mononucleosome 10 nM, 30 min preincubation
[8] = Table 3b.1, SMARCA2 5 nM, mononucleosome 10 nM
[9] = FL-SMARCA4 IC50, Table 3b.2, SMARCA4 5 nM, ATP 250 uM, mononucleosome 10 nM
[10] = Table 3d.1, ATPase assay, enzyme 5 nM, chicken mononucleosome 10 nM, 30 min preincubation, read-out: FL-SMARCA2 IC>50

IC50 [1, 2]: > 50 µM
IC50 (FL-SMARCA4; [3]): > 50 µM
SMILES: CCn1cc(NC(=O)c2ccc3ccccc3n2)ccc1=O [Compound 26a]

IC50 [1, 4]: 11.5 µM
IC50 (FL-SMARCA4; [5]): 35.6 µM
SMILES: CCn1cc(NC(=O)c2cc(Cl)c(C)s2)ccc1=O [Compound 73]

IC50 [1, 4]: > 50 µM
IC50 (FL-SMARCA4; [5]): > 50 µM
SMILES: O=C(Nc1cc(F)c(=O)n(CC(F)(F)F)c1)c1cnc(Cl)o1 [Compound 273]

IC50 [1, 2]: 13.2 µM
IC50 (FL-SMARCA4; [3]): > 50 µM
SMILES: CCn1cc(NC(=O)c2nc3cc(Cl)c(Cl)cc3[nH]2)ccc1=O [Compound 42a]

IC50 [1, 4]: 30.8 µM
IC50 (FL-SMARCA4; [5]): 37.7 µM
SMILES: Cn1cc(NC(=O)c2cc(Cl)c(Cl)s2)cc(Cl)c1=O [Compound 178]

IC50 [1, 6]: 22.4 µM
IC50 (FL-SMARCA4; [7]): 29.6 µM
SMILES: O=C(Nc1cc(-c2c[nH]cn2)c(=O)n(CC(F)F)c1)c1cc(Cl)c(C(F)(F)F)s1 [Compound 104c]

IC50 [1, 8]: > 50 µM
IC50 (FL-SMARCA4; [9]): > 50 µM
SMILES: CCn1cc(NC(=O)c2cccc(Cl)c2)ccc1=O [Compound 6b]

IC50 [1, 8]: > 50 µM
IC50 (FL-SMARCA4; [9]): > 50 µM
SMILES: Cc1c(Cl)cccc1C(=O)Nc1c[nH]c(=O)c(C)c1 [Compound 2b]

IC50 [1, 6]: 0.0508 µM
IC50 (FL-SMARCA4; [7]): 0.142 µM
SMILES: COc1nc(C#Cc2cc(C(=O)Nc3cc(F)c(=O)n(CC(F)F)c3)sc2Cl)cs1 [Compound 107c]

IC50 [1, 4]: 0.114 µM
IC50 (FL-SMARCA4; [5]): 0.313 µM
SMILES: CCn1cc(NC(=O)c2cc(C#N)c(C#N)s2)ccc1=O [Compound 181]

IC50 [1, 4]: > 50 µM
IC50 (FL-SMARCA4; [5]): > 50 µM
SMILES: CCn1cc(NC(=O)c2cc(Cl)c(Cl)n2-c2ccccc2)ccc1=O [Compound 66]

IC50 [1, 2]: > 50 µM
IC50 (FL-SMARCA4; [3]): > 50 µM
SMILES: CCn1cc(NC(=O)c2cccc(C(F)(F)F)n2)ccc1=O [Compound 57a]

IC50 [1, 6]: > 50 µM
IC50 (FL-SMARCA4; [7]): > 50 µM
SMILES: O=C(Nc1ccc(=O)n(CC(F)F)c1)c1sc(C(F)(F)F)cc1Cl [Compound 46c]

IC50 [1, 10]: > 50 µM
IC50 (FL-SMARCA4; FL-SMARCA4 IC50): > 50 µM
SMILES: CCn1cc(NC(=O)c2cc(Cl)c(Cl)s2)c(C)cc1=O [Compound 26d]

IC50 [1, 4]: > 50 µM
IC50 (FL-SMARCA4; [5]): > 50 µM
SMILES: O=C(Nc1cc(F)c(=O)n(CCF)c1)c1ccc(-c2cccnc2)s1 [Compound 313]

IC50 [1, 4]: 17.1 µM
IC50 (FL-SMARCA4; [5]): > 50 µM
SMILES: CCn1cc(NC(=O)c2csc(Cl)n2)ccc1=O [Compound 147]

IC50 [1, 2]: 32.1 µM
IC50 (FL-SMARCA4; [3]): > 50 µM
SMILES: O=C(Nc1cc(F)c(=O)n(CCF)c1)c1cc2cncnc2[nH]1 [Compound 66a]

IC50 [1, 2]: > 50 µM
IC50 (FL-SMARCA4; [3]): > 50 µM
SMILES: CCn1cc(NC(=O)c2cc3c(n2C)CCC3)ccc1=O [Compound 34a]

IC50 [1, 4]: 3.49 µM
IC50 (FL-SMARCA4; [5]): 22.6 µM
SMILES: Cn1c(C(=O)Nc2cc(F)c(=O)n(CCF)c2)cnc1Cl [Compound 205]

IC50 [1, 2]: > 50 µM
IC50 (FL-SMARCA4; [3]): > 50 µM
SMILES: C[C@H]1OCC(=O)N(Cc2ccccc2)[C@@H]1C(=O)Nc1ccc(=O)n(C)c1 [Compound 7a]

IC50 [1, 10]: > 50 µM
IC50 (FL-SMARCA4; FL-SMARCA4 IC50): > 50 µM
SMILES: CCn1c(C)c(NC(=O)c2cc(Cl)c(Cl)s2)ccc1=O [Compound 25d]

IC50 [1, 4]: > 50 µM
IC50 (FL-SMARCA4; [5]): > 50 µM
SMILES: CCn1cc(NC(=O)c2cnc(-c3ccc4c(c3)CCO4)s2)ccc1=O [Compound 5]

IC50 [1, 10]: 16.7 µM
IC50 (FL-SMARCA4; FL-SMARCA4 IC50): > 50 µM
SMILES: O=C(Nc1ccc(=O)n(CC(F)(F)F)n1)c1cc(Cl)c(Cl)s1 [Compound 21d]

IC50 [1, 4]: 1.64 µM
IC50 (FL-SMARCA4; [5]): 11.7 µM
SMILES: Cn1nc(C#N)cc1C(=O)Nc1cc(F)c(=O)n(CCF)c1 [Compound 243]

IC50 [1, 4]: 2 µM
IC50 (FL-SMARCA4; [5]): 12.1 µM
SMILES: N#Cc1cc(C(=O)Nc2cc(F)c(=O)n(CCF)c2)oc1Cl [Compound 245]

IC50 [1, 6]: 5.41 µM
IC50 (FL-SMARCA4; [7]): 6.27 µM
SMILES: O=C(Nc1cc(C#CC(F)(F)F)c(=O)n(CC(F)F)c1)c1cc(F)c(Cl)s1 [Compound 26c]

IC50 [1, 2]: > 50 µM
IC50 (FL-SMARCA4; [3]): > 50 µM
SMILES: O=C(Nc1cc(F)c(=O)n(CCF)c1)c1ccc(Cl)cn1 [Compound 56a]

IC50 [1, 4]: 0.127 µM
IC50 (FL-SMARCA4; [5]): 0.3 µM
SMILES: N#Cc1sc(C(=O)Nc2ccc(=O)n(CC(F)F)c2)cc1Cl [Compound 293]

IC50 [1, 6]: 16.8 µM
IC50 (FL-SMARCA4; [7]): 16.8 µM
SMILES: O=C(Nc1cc(F)c(=O)n(CC(F)F)c1)c1cc(C2COC2)c(Cl)s1 [Compound 49c]

IC50 [1, 4]: 39.3 µM
IC50 (FL-SMARCA4; [5]): > 50 µM
SMILES: CCn1cc(NC(=O)c2cc(Cl)c(OC)s2)ccc1=O [Compound 116]

IC50 [1, 2]: > 50 µM
IC50 (FL-SMARCA4; [3]): > 50 µM
SMILES: COc1ccc2[nH]c(C(=O)Nc3c[nH]c(=O)c(C)c3)cc2c1 [Compound 8a]

IC50 [1, 4]: > 50 µM
IC50 (FL-SMARCA4; [5]): > 50 µM
SMILES: CCn1cc(NC(=O)c2cnn(C)c2)ccc1=O [Compound 92]

IC50 [1, 4]: > 50 µM
IC50 (FL-SMARCA4; [5]): > 50 µM
SMILES: COCCn1cc(NC(=O)c2cc(Cl)c(Cl)s2)ccc1=O [Compound 87]
